Assay results as given in US20080318943A1, “Compounds and Uses Thereof - 848” (ASTRAZENECA AB, priority 2007, published 2008).

Columns and labels:
[1] = molecular target: T1, GABAA2 receptors (α2, β3, γ2 receptor subunits transfected into Sf9 cells) (Homo sapiens, UniProt P18507+P47869); assay: GABAA2 Binding Method ([3H]-Flunitrazepam displacement); conditions: [3H]-Flunitrazepam ~2 nM, α2β3γ2 Sf9 membranes, 1 hr at 4° C.
T1 construct: host or cells: Sf9 cells (membranes)
Summary of the method: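 Displacement of [3H]-flunitrazepam (~2 nM in assay) from recombinant human α2β3γ2 receptors in Sf9 membranes; 1 h incubation at 4 °C, harvest by filtration. Values reported as percent of control, IC50 and Ki.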

GABAA receptor α1β2γ2 = molecular target: T2, GABAA receptor α1β2γ2 (Homo sapiens, UniProt P14867+P18507); assay: Two-electrode voltage-clamp potentiation of GABA EC10 current in Xenopus oocytes, GABAA1; format: cell-based; conditions: percentage potentiation of GABA EC10 current divided by that of diazepam
T2 construct: expressed in transfected cells; host or cells: Xenopus laevis oocytes injected with cRNA
Summary of the method: (§1)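 Human GABAA receptors expressed in Xenopus oocytes by cRNA injection (α:β:γ molar ratio ~1:1:10 for α1β2γ2, 1:1:1 for α2β3γ2), recorded 2-10 days later by two-electrode voltage clamp at −60 mV in ND-96, pH 7.5. Modulator preapplied 30 s before GABA at per-oocyte EC10. Peak-current percent potentiation over GABA alone, normalised to diazepam.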

GABAA receptor α2β3γ2 = molecular target: T3, GABAA receptor α2β3γ2 (Homo sapiens, UniProt P18507+P47869); assay: Two-electrode voltage-clamp potentiation of GABA EC10 current in Xenopus oocytes, GABAA2; format: cell-based; conditions: percentage potentiation of GABA EC10 current divided by that of diazepam
T3 construct: expressed in transfected cells; host or cells: Xenopus laevis oocytes injected with cRNA
Summary of the method: as §1

[2] = listed as 9-amino-6-fluoro-5-(2-fluoro-6-methoxyphenyl)-2-methyl-2,3-dihydro-1H-pyrrolo[3

T2 sequence (P14867 28-456): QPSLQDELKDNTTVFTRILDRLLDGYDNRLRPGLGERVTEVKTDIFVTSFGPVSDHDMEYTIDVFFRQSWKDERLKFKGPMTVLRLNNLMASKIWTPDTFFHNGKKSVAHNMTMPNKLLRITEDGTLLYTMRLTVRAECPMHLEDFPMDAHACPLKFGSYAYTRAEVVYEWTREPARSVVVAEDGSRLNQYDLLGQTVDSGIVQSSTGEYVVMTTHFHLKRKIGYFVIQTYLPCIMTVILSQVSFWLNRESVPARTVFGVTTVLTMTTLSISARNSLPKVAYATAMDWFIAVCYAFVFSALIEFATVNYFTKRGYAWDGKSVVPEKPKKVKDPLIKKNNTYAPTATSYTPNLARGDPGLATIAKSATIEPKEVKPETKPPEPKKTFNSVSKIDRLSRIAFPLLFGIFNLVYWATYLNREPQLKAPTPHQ
T2 sequence (P47870 25-512 partner limits assumed): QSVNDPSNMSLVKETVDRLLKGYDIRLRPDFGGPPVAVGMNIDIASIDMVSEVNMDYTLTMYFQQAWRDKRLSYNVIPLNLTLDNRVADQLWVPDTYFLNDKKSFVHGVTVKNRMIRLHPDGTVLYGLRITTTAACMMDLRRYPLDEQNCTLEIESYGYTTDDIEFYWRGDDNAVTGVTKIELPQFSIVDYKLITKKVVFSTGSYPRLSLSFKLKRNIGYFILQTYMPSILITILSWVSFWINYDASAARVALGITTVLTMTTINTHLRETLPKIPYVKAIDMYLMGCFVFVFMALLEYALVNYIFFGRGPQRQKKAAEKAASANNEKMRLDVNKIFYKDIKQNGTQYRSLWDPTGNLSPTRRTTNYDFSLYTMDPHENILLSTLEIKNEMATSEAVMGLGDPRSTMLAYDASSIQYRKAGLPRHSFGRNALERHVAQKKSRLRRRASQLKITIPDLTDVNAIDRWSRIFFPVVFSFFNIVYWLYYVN
T2 sequence (P18507 40-475): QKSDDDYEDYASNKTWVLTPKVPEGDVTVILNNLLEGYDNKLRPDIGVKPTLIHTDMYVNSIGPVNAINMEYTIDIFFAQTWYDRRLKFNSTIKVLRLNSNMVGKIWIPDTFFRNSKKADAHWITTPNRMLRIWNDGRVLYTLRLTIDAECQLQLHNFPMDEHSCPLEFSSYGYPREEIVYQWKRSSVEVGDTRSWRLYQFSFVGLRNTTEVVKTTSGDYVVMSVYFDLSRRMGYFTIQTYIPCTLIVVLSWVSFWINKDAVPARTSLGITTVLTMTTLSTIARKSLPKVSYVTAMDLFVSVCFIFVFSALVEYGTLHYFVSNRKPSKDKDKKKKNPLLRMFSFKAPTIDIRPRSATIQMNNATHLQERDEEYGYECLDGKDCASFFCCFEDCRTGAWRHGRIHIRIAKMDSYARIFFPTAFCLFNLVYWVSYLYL
T3 sequence (P47869 29-451): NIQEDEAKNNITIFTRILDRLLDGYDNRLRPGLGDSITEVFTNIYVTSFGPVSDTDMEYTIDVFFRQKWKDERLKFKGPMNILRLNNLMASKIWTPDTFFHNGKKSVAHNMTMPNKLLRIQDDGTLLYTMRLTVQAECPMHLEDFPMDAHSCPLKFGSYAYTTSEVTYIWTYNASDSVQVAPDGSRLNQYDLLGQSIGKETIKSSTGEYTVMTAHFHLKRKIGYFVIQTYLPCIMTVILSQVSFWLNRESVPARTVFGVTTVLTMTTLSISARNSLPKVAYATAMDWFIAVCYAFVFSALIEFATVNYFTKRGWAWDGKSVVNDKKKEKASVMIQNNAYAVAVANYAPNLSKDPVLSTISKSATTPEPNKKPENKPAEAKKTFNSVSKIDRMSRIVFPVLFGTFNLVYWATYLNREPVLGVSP
T3 sequence (P28472 26-473 partner): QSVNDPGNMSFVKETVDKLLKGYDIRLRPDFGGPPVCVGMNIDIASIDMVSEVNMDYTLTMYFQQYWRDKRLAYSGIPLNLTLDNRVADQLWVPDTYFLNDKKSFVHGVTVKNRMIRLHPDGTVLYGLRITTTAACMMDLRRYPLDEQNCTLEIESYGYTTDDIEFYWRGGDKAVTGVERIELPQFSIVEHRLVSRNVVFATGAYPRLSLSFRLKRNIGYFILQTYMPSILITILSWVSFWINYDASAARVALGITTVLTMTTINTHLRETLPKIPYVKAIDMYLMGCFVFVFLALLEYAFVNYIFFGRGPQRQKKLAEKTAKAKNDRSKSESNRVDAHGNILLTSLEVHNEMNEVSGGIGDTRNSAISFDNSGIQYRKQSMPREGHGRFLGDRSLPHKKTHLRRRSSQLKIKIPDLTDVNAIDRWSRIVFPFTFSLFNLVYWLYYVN
T3 sequence (P18507 40-475): as the sequence (P18507 40-475) above
T1 sequence (P47869 29-451): as the sequence (P47869 29-451) above
T1 sequence (P28472 26-473 partner): as the sequence (P28472 26-473 partner) above
T1 sequence (P18507 40-475): as the sequence (P18507 40-475) above

Row | SMILES | Ki [1] [nM] | Relative Potentiation for GABAA1 (GABAA receptor α1β2γ2) | Relative Potentiation for GABAA2 (GABAA receptor α2β3γ2) | Relative Potentiation for GABAA1 (GABAA receptor α1β2γ2; [2]) | Relative Potentiation for GABAA2 (GABAA receptor α2β3γ2; [2])
1 | COc1ccc(CN2Cc3nc4c(-c5cnccc5OC)cccc4c(N)c3C2=O)cc1 [9-amino-2-(4-methoxybenzyl)-5-(4-methoxypyridin-3-yl)-2,3-dihydro-1H-pyrrolo[3,4-b]quinolin-1-one] | 3.35 | 0.32 | 0.52 | – | –
2 | COc1cccc(F)c1-c1c(F)ccc2c(N)c3c(nc12)CN(C)C3=O [Example 70, 9-Amino-6-fluoro-5-(2-fluoro-6-methoxyphenyl)-2-methyl-2,3-dihydropyrrolo[3,4-b]quinolin-1-one] | 8.11 | – | – | 0.02 | 0.16
3 | COc1ncc(-c2c(F)ccc3c(N)c4c(nc23)CN(C2CC2)C4=O)c(OC)n1 [Example 44, 9-Amino-2-cyclopropyl-5-(2,4-dimethoxypyrimidin-5-yl)-6-fluoro-2,3-dihydropyrrolo[3,4-b]quinolin-1-one] | 6.64 | 0.13 | 0.35 | – | –
4 | COc1ccc(F)cc1-c1cccc2c(N)c3c(nc12)CN(C1CCC1)C3=O [9-Amino-2-cyclobutyl-5-(5-fluoro-2-methoxyphenyl)-2,3-dihydropyrrolo[3,4-b]quinolin-1-one] | 8.9 | 0.066 | 0.36 | – | –
5 | CCN1Cc2nc3c(-c4cc(OC)ccc4F)c(F)ccc3c(N)c2C1=O [9-Amino-2-ethyl-6-fluoro-5-(2-fluoro-5-methoxyphenyl)-2,3-dihydropyrrolo[3,4-b]quinolin-1-one] | 1.4 | 0.005 | 0.17 | – | –
6 | COc1ccc(OC)c(CN2Cc3nc4c(-c5cccnc5OC)cccc4c(N)c3C2=O)c1 [Example 4, 9-Amino-2-(2,5-dimethoxybenzyl)-5-(2-methoxypyridin-3-yl)-2,3-dihydropyrrolo[3,4-b]quinolin-1-one] | 31.2 | 0.013 | 0.18 | – | –
7 | COc1cccc(Cl)c1-c1cccc2c(N)c3c(nc12)CN(C1CCC1)C3=O [9-amino-5-(2-chloro-6-methoxyphenyl)-2-cyclobutyl-2,3-dihydro-1H-pyrrolo[3,4-b]quinolin-1-one] | 2.22 | −0.15 | 0.051 | – | –
8 | CCN1Cc2nc3c(-c4c(F)cc(OC)cc4F)c(F)ccc3c(N)c2C1=O [9-amino-5-(2,6-difluoro-4-methoxyphenyl)-2-ethyl-6-fluoro-2,3-dihydro-1H-pyrrolo[3,4-b]quinolin-1-one] | 4.5 | −0.09 | −0.02 | – | –
9 | COc1ccc(-c2cccc3c(N)c4c(nc23)CN(C2CCC2)C4=O)cn1 [9-Amino-2-cyclobutyl-5-(6-methoxypyridin-3-yl)-2,3-dihydropyrrolo[3,4-b]quinolin-1-one] | 6.48 | −0.035 | 0.14 | – | –
10 | N#Cc1cncc(-c2cccc3c(N)c4c(nc23)CN(C2CCC2)C4=O)c1 [5-(9-Amino-2-cyclobutyl-1-oxo-2,3-dihydro-1H-pyrrolo[3,4-b]quinolin-5-yl)-nicotinonitrile] | 5.85 | 0.048 | 0.21 | – | –
11 | COc1ccc(OC)c(-c2cccc3c(N)c4c(nc23)CN(Cc2ccc(OC)c(OC)c2)C4=O)c1 [Example 11, 9-Amino-2-(3,4-dimethoxybenzyl)-5-(2,5-dimethoxyphenyl)-2,3-dihydropyrrolo[3,4-b]quinolin-1-one] | 11 | 0.15 | 0.19 | – | –
12 | COc1cncc(-c2cccc3c(N)c4c(nc23)CN(C2CCC2)C4=O)c1 [9-Amino-2-cyclobutyl-5-(5-methoxy-pyridin-3-yl)-2,3-dihydropyrrolo[3,4-b]quinolin-1-one] | 1.86 | 0.038 | 0.26 | – | –
